Like-named read-outs stand apart in the source and are kept apart here.
Legend:
[1] = molecular target: T1, HDAC7 (Homo sapiens, UniProt Q8WUI4); assay: HDAC biochemical activity measurement (fluorescent substrate deacetylation);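 also: fluorogenic deacetylation assay using acetyl-lysine substrate at 20 µM, enzyme and compound incubated 30 min at 37 °C, then developer added, fluorescence read at 360/460 nm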; details: HDAC7; 37° C. 30 minutes
T1 sequence (Q8WUI4 1-952): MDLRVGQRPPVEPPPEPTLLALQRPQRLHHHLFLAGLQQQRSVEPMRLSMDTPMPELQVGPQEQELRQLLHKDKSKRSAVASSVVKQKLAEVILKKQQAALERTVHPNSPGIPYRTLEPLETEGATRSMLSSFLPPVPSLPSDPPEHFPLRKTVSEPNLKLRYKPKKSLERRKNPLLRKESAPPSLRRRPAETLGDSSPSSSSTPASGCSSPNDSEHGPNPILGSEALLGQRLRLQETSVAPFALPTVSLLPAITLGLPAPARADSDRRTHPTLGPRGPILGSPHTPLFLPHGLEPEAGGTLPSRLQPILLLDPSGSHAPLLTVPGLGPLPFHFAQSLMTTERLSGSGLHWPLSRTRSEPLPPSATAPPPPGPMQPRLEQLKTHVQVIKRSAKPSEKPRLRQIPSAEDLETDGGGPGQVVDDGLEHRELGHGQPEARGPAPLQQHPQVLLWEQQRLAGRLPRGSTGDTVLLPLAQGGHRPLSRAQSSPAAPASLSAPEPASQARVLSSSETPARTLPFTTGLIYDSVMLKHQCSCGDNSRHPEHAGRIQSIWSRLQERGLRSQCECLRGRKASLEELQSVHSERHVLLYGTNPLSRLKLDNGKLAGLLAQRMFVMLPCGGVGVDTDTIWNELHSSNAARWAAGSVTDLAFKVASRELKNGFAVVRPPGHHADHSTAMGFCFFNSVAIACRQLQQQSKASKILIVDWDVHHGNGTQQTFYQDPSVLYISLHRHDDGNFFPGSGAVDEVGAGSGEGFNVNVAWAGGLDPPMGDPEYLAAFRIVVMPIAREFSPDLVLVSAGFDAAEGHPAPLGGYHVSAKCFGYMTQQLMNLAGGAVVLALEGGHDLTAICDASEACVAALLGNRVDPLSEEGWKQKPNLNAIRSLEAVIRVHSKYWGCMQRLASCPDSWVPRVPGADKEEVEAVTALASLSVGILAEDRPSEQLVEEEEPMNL
Description: The chemical activity of the compound is determined according to the degree of deacetylation inhibition of the HDAC enzyme. This experiment measured the degree of deacetylation related to tumor proliferation and metastasis of HDAC1, HDAC2, HDAC3, HDAC8, HDAC11 five subtypes HDAC enzymes. After the substrate containing an acetylated lysine side chain and HDAC enzyme are labeled with a fluorescent label, the fluorescent substrate is de acetyl. The fluorescent labeled substrate is cleaved by the enzyme, and the fluorescent substance is released, which generates 460 nm emission light under the excitation of 360 nm light.
HDAC substrate was diluted with reaction buffer to 200M (reaction concentration of 20M), the HDAC enzyme was diluted to the appropriate concentration, then added different concentrations of the test compounds and acted at 37° C. 30 minutes, and then added the same volume of 2-times concentration substrate developing solution (developer), incubated at room temperature for 15 minutes. Finally, the last reading measured with a microplate plate reader, excitation light was 360 nm, the emitted light was 460 nm, data processing software was Prime 4, and the results are shown in Table 1.

[2] = system: A549 (human lung cancer cells); assay: MTT cancer cell growth inhibition; assay type: cell-based; details: Homo sapiens, A549, 72 h, MTT, 72 hours incubation, read-out: GI50 A54
Text: (§1) MTT assay principle is yellow MTT can penetrate membrane into the cell, succinic dehydrogenase of the mitochondria in living cells can make exogenous MTT reduction of insoluble in water of blue-violet acicular formazan for crystallization and deposition in the cell, crystallization can be dissolved dimethyl sulfoxide (DMSO) solution, detected its absorbance at 490 nm/570 nm wavelength by enzyme-linked immunosorbent assay, which can reflect the number of cells.
(§2) Using DMEM+10% FBS culture medium or using 1640+10% FBS culture, respectively.
(§3) a) Cells were seeded in 96-well plates with the inoculation of 1500/well, 190 μl/hole, 37° C., 5% of CO2 incubator overnight;
(§4) b) The next day each well was added 10 μl of different drugs. The final concentration of drug was 10^−5˜10^−10M, three parallel holes; 37° C., 5% CO2 culture incubator for 72 hours incubation;
(§5) c) Per well was added 20 μl 5 mg/ml of MTT, 37° C., 5% CO2 culture incubator for 4 hours incubation;
(§6) d) The supernatant was discarded. Each well was added 100 μl of DMSO and oscillation;
(§7) e) 570 nm readings. Calculate cell viability. GI50 calculation based on the results.

[3] = system: BGC-823 (human gastric cancer cells); assay: MTT cancer cell growth inhibition; assay type: cell-based; details: Homo sapiens, BGC-823, 72 h, MTT, 72 hours incubation, read-out: GI50 BG
Text: as §1, §2, §3, §4, §5, §6, §7

[4] = system: Bel-7402 (human hepatoma cells); assay: MTT cancer cell growth inhibition; assay type: cell-based; details: Homo sapiens, Bel-7402, 72 h, MTT, 72 hours incubation, Bel-7402 cells; read-out: GI50 Bel-7402
Text: as §1, §2, §3, §4, §5, §6, §7

[5] = system: DU145 (human prostate cancer cells); assay: MTT cancer cell growth inhibition; assay type: cell-based; details: Homo sapiens, DU-145, 72 h, MTT, 72 hours incubation, read-out: GI50 Du1
Text: as §1, §2, §3, §4, §5, §6, §7

[6] = system: H1975 (non-small cell lung adenocarcinoma); assay: MTT cancer cell growth inhibition; assay type: cell-based; details: Homo sapiens, NCI-H1975, 72 h, MTT, 72 hours incubation, H1975 cells; read-out: GI50 H1975
Text: as §1, §2, §3, §4, §5, §6, §7

[7] = system: HCC827 (human non-small cell lung cancer cells); assay: MTT cancer cell growth inhibition; assay type: cell-based; details: Homo sapiens, HCC827, 72 h, MTT, 72 hours incubation, HCC827 cells; read-out: GI50 HCC827
Text: as §1, §2, §3, §4, §5, §6, §7

[8] = system: HT1080 (human fibrosarcoma cells); assay: MTT cancer cell growth inhibition; assay type: cell-based; details: Homo sapiens, HT-1080, 72 h, MTT, 72 hours incubation, read-out: GI50 HT1
Text: as §1, §2, §3, §4, §5, §6, §7

[9] = system: Hela (human cervical cancer cells); assay: MTT cancer cell growth inhibition; assay type: cell-based; details: Homo sapiens, HeLa, 72 h, MTT, 72 hours incubation, read-out: GI50 Hela
Text: as §1, §2, §3, §4, §5, §6, §7

[10] = system: Huh-7 (human hepatoma cells); assay: MTT cancer cell growth inhibition; assay type: cell-based; details: Homo sapiens, Huh-7, 72 h, MTT, 72 hours incubation, Huh-7 cells; read-out: GI50 Huh-7
Text: as §1, §2, §3, §4, §5, §6, §7

[11] = system: K562 (human leukemia cells); assay: MTT cancer cell growth inhibition; assay type: cell-based; details: Homo sapiens, K562, 72 h, MTT, 72 hours incubation, K562 cells; read-out: GI50 K562
Text: as §1, §2, §3, §4, §5, §6, §7

[12] = system: KBM-5 (human chronic myelogenous leukemia); assay: MTT cancer cell growth inhibition; assay type: cell-based; details: Homo sapiens, KBM5, 72 h, MTT, 72 hours incubation, KBM-5 cells; read-out: GI50 KBM-5
Text: as §1, §2, §3, §4, §5, §6, §7

[13] = system: KBM5-T315I (human chronic myelogenous leukemia); assay: MTT cancer cell growth inhibition; assay type: cell-based; details: Homo sapiens, 72 h, MTT, 72 hours incubation, KBM5-T315I cells; read-out: GI50 KBM5-T315I
Text: as §1, §2, §3, §4, §5, §6, §7

[14] = system: MCF-7 (human breast cancer cells); assay: MTT cancer cell growth inhibition; assay type: cell-based; details: Homo sapiens, MCF7, 72 h, 72 hours incubation, read-out: GI50 MCF
Text: as §1, §2, §3, §4, §5, §6, §7

[15] = system: MDA-MB-231 (breast cancer cells); assay: MTT cancer cell growth inhibition; assay type: cell-based; details: Homo sapiens, MDA-MB-231, 72 h, read-out: GI50 MDA-MB-231, MTT, 72 hours incubation, MDA-MB-231 cells
Text: as §1, §2, §3, §4, §5, §6, §7

[16] = system: MOLT-4 (human acute lymphoblastic leukemia cells); assay: MTT cancer cell growth inhibition; assay type: cell-based; details: Homo sapiens, MOLT-4, 72 h, MTT, 72 hours incubation, read-out: GI50 Mol
Text: as §1, §2, §3, §4, §5, §6, §7

[17] = system: N-87 (human gastric cancer cells); assay: MTT cancer cell growth inhibition; assay type: cell-based; details: Homo sapiens, 72 h, MTT, 72 hours incubation, N-87 cells; read-out: GI50 N-87
Text: as §1, §2, §3, §4, §5, §6, §7

[18] = system: PANC-1 (Pac-1, human pancreatic cancer cells); assay: MTT cancer cell growth inhibition; assay type: cell-based; details: Homo sapiens, PANC-1, 72 h, MTT, 72 hours incubation, read-out: GI50 PAN
Text: as §1, §2, §3, §4, §5, §6, §7

[19] = system: SGC-7901 (human gastric cancer cells); assay: MTT cancer cell growth inhibition; assay type: cell-based; details: Homo sapiens, SGC-7901, 72 h, MTT, 72 hours incubation, SGC-7901 cells; read-out: GI50 SGC-7901
Text: as §1, §2, §3, §4, §5, §6, §7

[20] = system: U937 (human leukemia cells); assay: MTT cancer cell growth inhibition; assay type: cell-based; details: Homo sapiens, U-937, 72 h, MTT, 72 hours incubation, read-out: GI50 U93
Text: as §1, §2, §3, §4, §5, §6, §7

[21] = system: lncap (prostate cancer cells); assay: MTT cancer cell growth inhibition; assay type: cell-based; details: Homo sapiens, LNCaP, 72 h, MTT, 72 hours incubation, read-out: GI50 lnca
Text: as §1, §2, §3, §4, §5, §6, §7

SMILES | IC50 HDAC7 [1] | GI50 ([2]; A549 cells) | GI50 ([3]; BGC-823 cells) | GI50 [4] | GI50 ([5]; DU145 cells) | GI50 [6] | GI50 [7] | GI50 ([8]; HT1080 cells) | GI50 ([9]; Hela cells) | GI50 [10] | GI50 [11] | GI50 [12] | GI50 [13] | GI50 ([14]; MCF-7 cells) | GI50 [15] | GI50 ([16]; MOLT-4 cells) | GI50 [17] | GI50 ([18]; PANC-1 cells) | GI50 [19] | GI50 ([20]; U937 cells) | also measured
C/C=C1\NC(=O)c2nc(ccc2SC)CNC(=O)C[C@@H](/C=C/CCSC(=O)CCCCCCC)OC(=O)[C@H](Cc2ccccc2)NC1=O [Compound 189] | no activity | 30 nM | 10 nM | 36 nM | 30 nM | 41 nM | 41 nM | 110 nM | 40 nM | 21 nM | 32 nM | 45 nM | 43 nM | 30 nM | 38 nM | 50 nM | 45 nM | 80 nM | 23 nM | 40 nM | GI50 ([21]; lncap cells): 50 nM
C/C=C1\NC(=O)c2cc(F)cc(n2)CNC(=O)C[C@@H](/C=C/CCS)OC(=O)[C@H](Cc2cccc3ccccc23)NC1=O [Compound 125] | no activity | – | – | 57 nM | – | 36 nM | 29 nM | – | – | 25 nM | 47 nM | 64 nM | 58 nM | – | 75 nM | – | 31 nM | – | 39 nM | – | GI50 [2]: 60 nM; GI50 [3]: 30 nM; GI50 [5]: 30 nM; GI50 [8]: 40 nM; GI50 [9]: 50 nM; GI50 [14]: 60 nM; GI50 [16]: 110 nM; GI50 [18]: 120 nM; GI50 [20]: 50 nM; GI50 [21]: 110 nM
C/C=C1\NC(=O)c2ccc(SC)c(n2)CNC(=O)C[C@@H](/C=C/CCSC(C)=O)OC(=O)[C@H](Cc2ccccc2)NC1=O [Compound 188] | no activity | 20 nM | 30 nM | 42 nM | 30 nM | 53 nM | 29 nM | 80 nM | 50 nM | 79 nM | 36 nM | 18 nM | 36 nM | 30 nM | 23 nM | 30 nM | 28 nM | 50 nM | 71 nM | 40 nM | GI50 ([21]; lncap cells): 60 nM
C/C=C1\NC(=O)c2cc(SC)cc(n2)CNC(=O)C[C@@H](/C=C/CCSC(C)=O)OC(=O)[C@H](Cc2ccc(O)cc2)NC1=O [Compound 202] | no activity | 50 nM | 40 nM | 76 nM | 70 nM | 58 nM | 32 nM | 30 nM | 20 nM | 31 nM | 15 nM | 38 nM | 26 nM | 30 nM | 41 nM | 50 nM | 29 nM | 30 nM | 31 nM | 20 nM | GI50 ([21]; lncap cells): 20 nM

The next compounds have a lower GI50 [4] than those just listed; values first:

IC50 HDAC7 [1] | GI50 ([2]; A549 cells) | GI50 ([3]; BGC-823 cells) | GI50 [4] | GI50 ([5]; DU145 cells) | GI50 [6] | GI50 [7] | GI50 ([8]; HT1080 cells) | GI50 ([9]; Hela cells) | GI50 [10] | GI50 [11] | GI50 [12] | GI50 [13] | GI50 ([14]; MCF-7 cells) | GI50 [15] | GI50 ([16]; MOLT-4 cells) | GI50 [17] | GI50 ([18]; PANC-1 cells) | GI50 [19] | GI50 ([20]; U937 cells) | SMILES | also measured
no activity | – | – | 22 nM | – | 35 nM | 41 nM | – | – | 36 nM | 46 nM | 9 nM | 35 nM | – | 58 nM | – | 31 nM | – | 51 nM | – | CC(C)=C1NC(=O)c2nc(ccc2F)CNC(=O)C[C@@H](/C=C/CCS)OC(=O)[C@H](C(C)C)NC1=O [Compound 136] | GI50 [2]: 40 nM; GI50 [3]: 70 nM; GI50 [5]: 10 nM; GI50 [8]: 40 nM; GI50 [9]: 80 nM; GI50 [14]: 50 nM; GI50 [16]: 20 nM; GI50 [18]: 80 nM; GI50 [20]: 30 nM; GI50 [21]: 30 nM
no activity | 50 nM | 60 nM | 26 nM | 40 nM | 45 nM | 47 nM | 10 nM | 10 nM | 107 nM | 58 nM | 75 nM | 23 nM | 20 nM | 58 nM | 40 nM | 39 nM | 70 nM | 49 nM | 30 nM | C/C=C1\NC(=O)c2cc(SC)cc(n2)CNC(=O)C[C@@H](/C=C/CCSC(=O)CC)OC(=O)[C@H](C(C)C)NC1=O [Compound 163] | GI50 ([21]; lncap cells): 30 nM

— patent US10065990B2, “Cyclic peptide compound, and preparation method, pharmaceutical composition and use thereof” (HANGZHOU GUANYU BIO-MEDICAL CO., LTD, priority 2013, dated 2018)
